Measured values from PubChem BioAssay AID2060488 (Molecular Pharmacology Branch, DTP, NCI, 2025).

Test system: 966289-007-R4-J1-PDC complex spheroid viability
Experiment: Anticancer human tumor 966289-007-R4-J1-PDC patient-derived pancreatic adenocarcinoma cell line growth inhibition [GQUAD]
Conditions: for IC50: curve of first compound; for viability, T/C: stronger effect = lower value
Procedure, shortened: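 Multi-cell-type spheroids of tumor cells with HUVEC and mesenchymal stem cells, treated with drug combinations. Concentrations descend in half-log steps from near clinical Cmax, or from 10 microM where Cmax is unknown; viability read-out.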

[1] = second compound 0.0316 µM, first compound 0.0316 µM
[2] = second compound 0.0316 µM, first compound 0.316 µM
[3] = second compound 0.1 µM, first compound 0.0316 µM
[4] = second compound 0.1 µM, first compound 0.316 µM
[5] = second compound 0.316 µM, first compound 0.0316 µM
[6] = second compound 0.316 µM, first compound 0.316 µM
[7] = second compound 1 µM, first compound 0.0316 µM
[8] = second compound 1 µM, first compound 0.316 µM
[9] = second compound 3.16 µM, first compound 0.0316 µM
[10] = second compound 3.16 µM, first compound 0.316 µM
[11] = second compound 10 µM, first compound 0.0316 µM
[12] = second compound 10 µM, first compound 0.316 µM
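Also: spheroids exposed to the agents for seven days before readout.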
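For viability, T/C in this document: percent viability relative to DMSO vehicle control wells taken as 100%.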

## Cc1[nH]c2ccccc2c1CCNCc1ccc(/C=C/C(=O)NO)cc1 + CN(C)c1ccc(Nc2c3ccc(NC(=O)CCN4CCCC4)cc3nc3cc(NC(=O)CCN4CCCC4)ccc23)cc1
Second compound 0.0316 µM
  IC50: 78 nM
Second compound 0.1 µM
  IC50: 68.4 nM
Second compound 0.316 µM
  IC50: 75 nM
Second compound 1 µM
  IC50: 67.5 nM
Second compound 3.16 µM
  IC50: 54.3 nM
Second compound 10 µM
  IC50: 46.9 nM
Second compound 0.0316 µM, first compound 0.000999 µM
  viability, T/C: 106%
Second compound 0.0316 µM, first compound 0.00316 µM
  viability, T/C: 95.3%
Second compound 0.0316 µM, first compound 0.00999 µM
  viability, T/C: 109%
[1]
  viability, T/C: 85.8%
Second compound 0.0316 µM, first compound 0.0999 µM
  viability, T/C: 40.2%
[2]
  viability, T/C: 5.05%
Second compound 0.1 µM, first compound 0.000999 µM
  viability, T/C: 106%
Second compound 0.1 µM, first compound 0.00316 µM
  viability, T/C: 102%
Second compound 0.1 µM, first compound 0.00999 µM
  viability, T/C: 109%
[3]
  viability, T/C: 87.8%
Second compound 0.1 µM, first compound 0.0999 µM
  viability, T/C: 31.4%
[4]
  viability, T/C: 4.54%
Second compound 0.316 µM, first compound 0.000999 µM
  viability, T/C: 94.7%
Second compound 0.316 µM, first compound 0.00316 µM
  viability, T/C: 97.8%
Second compound 0.316 µM, first compound 0.00999 µM
  viability, T/C: 109%
[5]
  viability, T/C: 101%
Second compound 0.316 µM, first compound 0.0999 µM
  viability, T/C: 33.1%
[6]
  viability, T/C: 3.99%
Second compound 1 µM, first compound 0.000999 µM
  viability, T/C: 98.9%
Second compound 1 µM, first compound 0.00316 µM
  viability, T/C: 100%
Second compound 1 µM, first compound 0.00999 µM
  viability, T/C: 108%
[7]
  viability, T/C: 98.2%
Second compound 1 µM, first compound 0.0999 µM
  viability, T/C: 25%
[8]
  viability, T/C: 3.89%
Second compound 3.16 µM, first compound 0.000999 µM
  viability, T/C: 98.3%
Second compound 3.16 µM, first compound 0.00316 µM
  viability, T/C: 104%
Second compound 3.16 µM, first compound 0.00999 µM
  viability, T/C: 104%
[9]
  viability, T/C: 81%
Second compound 3.16 µM, first compound 0.0999 µM
  viability, T/C: 14.8%
[10]
  viability, T/C: 1.84%
Second compound 10 µM, first compound 0.000999 µM
  viability, T/C: 100%
Second compound 10 µM, first compound 0.00316 µM
  viability, T/C: 104%
Second compound 10 µM, first compound 0.00999 µM
  viability, T/C: 108%
[11]
  viability, T/C: 74.8%
Second compound 10 µM, first compound 0.0999 µM
  viability, T/C: 2.99%
[12]
  viability, T/C: 0.49%

## O=C(NO)c1cnc(N2CCN(S(=O)(=O)c3ccc4ccccc4c3)CC2)nc1 + CN(C)c1ccc(Nc2c3ccc(NC(=O)CCN4CCCC4)cc3nc3cc(NC(=O)CCN4CCCC4)ccc23)cc1
Second compound 0.0316 µM
  IC50: 363 nM
Second compound 0.1 µM
  IC50: 431 nM
Second compound 0.316 µM
  IC50: 343 nM
Second compound 1 µM
  IC50: 264 nM
Second compound 3.16 µM
  IC50: 279 nM
Second compound 10 µM
  IC50: 191 nM
[1]
  viability, T/C: 112%
Second compound 0.0316 µM, first compound 0.1 µM
  viability, T/C: 107%
[2]
  viability, T/C: 55.2%
Second compound 0.0316 µM, first compound 1 µM
  viability, T/C: 9.1%
Second compound 0.0316 µM, first compound 3.16 µM
  viability, T/C: 1.51%
Second compound 0.0316 µM, first compound 10 µM
  viability, T/C: 0.76%
[3]
  viability, T/C: 105%
Second compound 0.1 µM, first compound 0.1 µM
  viability, T/C: 106%
[4]
  viability, T/C: 64.2%
Second compound 0.1 µM, first compound 1 µM
  viability, T/C: 10.4%
Second compound 0.1 µM, first compound 3.16 µM
  viability, T/C: 1.4%
Second compound 0.1 µM, first compound 10 µM
  viability, T/C: 0.24%
[5]
  viability, T/C: 106%
Second compound 0.316 µM, first compound 0.1 µM
  viability, T/C: 108%
[6]
  viability, T/C: 52.9%
Second compound 0.316 µM, first compound 1 µM
  viability, T/C: 7.46%
Second compound 0.316 µM, first compound 3.16 µM
  viability, T/C: 1.19%
Second compound 0.316 µM, first compound 10 µM
  viability, T/C: 0.23%
[7]
  viability, T/C: 100%
Second compound 1 µM, first compound 0.1 µM
  viability, T/C: 108%
[8]
  viability, T/C: 39.9%
Second compound 1 µM, first compound 1 µM
  viability, T/C: 8.91%
Second compound 1 µM, first compound 3.16 µM
  viability, T/C: 1.33%
Second compound 1 µM, first compound 10 µM
  viability, T/C: 0.27%
[9]
  viability, T/C: 97.1%
Second compound 3.16 µM, first compound 0.1 µM
  viability, T/C: 107%
[10]
  viability, T/C: 43.6%
Second compound 3.16 µM, first compound 1 µM
  viability, T/C: 5.36%
Second compound 3.16 µM, first compound 3.16 µM
  viability, T/C: 0.77%
Second compound 3.16 µM, first compound 10 µM
  viability, T/C: 0.21%
[11]
  viability, T/C: 101%
Second compound 10 µM, first compound 0.1 µM
  viability, T/C: 106%
[12]
  viability, T/C: 7.93%
Second compound 10 µM, first compound 1 µM
  viability, T/C: 1.01%
Second compound 10 µM, first compound 3.16 µM
  viability, T/C: 0.44%
Second compound 10 µM, first compound 10 µM
  viability, T/C: 0.14%
